Legend:
human TLR7 = biological target: T1, human TLR7 (Homo sapiens, UniProt Q9NYK1); assay: TLR7 wild type NFκB-luc cellular reporter assay; assay type: cell-based; design: unit not given here; conditions: HEK293 NFκB-luc reporter, 6 hours incubation; second part of table
T1 construct: expressed in transfected cells; host or cells: HEK293
T1 sequence (Q9NYK1 27-1049): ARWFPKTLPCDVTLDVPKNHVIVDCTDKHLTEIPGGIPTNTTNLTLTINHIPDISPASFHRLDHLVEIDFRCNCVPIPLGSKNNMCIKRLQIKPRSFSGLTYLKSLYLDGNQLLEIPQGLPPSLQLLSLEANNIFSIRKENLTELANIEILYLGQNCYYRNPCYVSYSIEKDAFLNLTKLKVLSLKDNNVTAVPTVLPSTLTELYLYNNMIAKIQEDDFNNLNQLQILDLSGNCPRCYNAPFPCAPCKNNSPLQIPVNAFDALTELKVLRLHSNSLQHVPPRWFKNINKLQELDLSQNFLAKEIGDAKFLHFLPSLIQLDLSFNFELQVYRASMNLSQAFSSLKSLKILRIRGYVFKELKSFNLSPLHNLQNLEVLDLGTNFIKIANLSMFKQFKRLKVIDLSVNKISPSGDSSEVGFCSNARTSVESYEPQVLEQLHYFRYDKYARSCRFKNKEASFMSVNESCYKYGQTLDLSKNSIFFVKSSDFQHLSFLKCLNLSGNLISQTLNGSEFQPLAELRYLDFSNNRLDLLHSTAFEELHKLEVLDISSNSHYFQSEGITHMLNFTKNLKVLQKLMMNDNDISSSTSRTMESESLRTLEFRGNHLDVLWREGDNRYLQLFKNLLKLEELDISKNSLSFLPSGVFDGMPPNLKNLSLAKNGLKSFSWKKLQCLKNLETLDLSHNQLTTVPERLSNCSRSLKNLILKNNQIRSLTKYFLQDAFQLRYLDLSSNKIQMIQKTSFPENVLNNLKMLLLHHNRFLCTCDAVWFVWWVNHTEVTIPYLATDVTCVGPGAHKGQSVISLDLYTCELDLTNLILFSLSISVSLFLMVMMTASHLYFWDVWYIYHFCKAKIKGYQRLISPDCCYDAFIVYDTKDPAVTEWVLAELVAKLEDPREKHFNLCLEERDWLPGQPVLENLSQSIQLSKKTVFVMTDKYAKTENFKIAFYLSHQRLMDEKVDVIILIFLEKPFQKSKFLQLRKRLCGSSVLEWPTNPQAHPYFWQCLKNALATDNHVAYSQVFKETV
Protocol: The ability of compounds to activate human TLR7 and/or TLR8 was assessed in a cellular reporter assay using HEK293 cells transiently transfected with a TLR7 or TLR8 expression vector and NFκB-luc reporter construct. In one instance the TLR expression construct expresses the respective wild type sequence or a mutant sequence comprising a deletion in the second leucine-rich repeat of the TLR.
Briefly, HEK293 cells were grown in culture medium (DMEM supplemented with 10% FCS and 2 mM Glutamine). For transfection of cells in 10 cm dishes, cells were detached with Trypsin-EDTA, transfected with a mix of CMV-TLR7 or TLR8 plasmid (750 ng), NFκB-luc plasmid (375 ng) and a transfection reagent and incubated 24 hours at 37° C. in a humidified 5% CO2 atmosphere. Transfected cells were then detached with Trypsin-EDTA, washed in PBS and resuspended in medium to a density of 1.67×10^5 cells/mL. Thirty microliters of cells were then dispensed into each well in 384-well plates, where 10 μL of compound in 4% DMSO was already present. […] Dose response curves were generated from measurements performed in quadruplicates. Lowest effective concentrations (LEC) values, defined as the concentration that induces an effect which is at least two fold above the standard deviation of the assay, were determined for each compound.

[1] = system: interferon-stimulated responsive elements (ISRE); assay: Activation of ISRE promoter elements by conditioned media from PBMC (HEK-ISREluc); assay type: cell-based, human; design: unit not given here; conditions: compound applied to PBMCs, supernatant transferred to HEK-ISREluc cells, 24 hours
Protocol: The potential of compounds to induce IFN-I was also evaluated by measuring the activation of interferon-stimulated responsive elements (ISRE) by conditioned media from PBMC. The ISRE element of sequence GAAACTGAAACT is highly responsive to the STAT1-STAT2-IRF9 transcription factor, activated upon binding of IFN-I to their receptor IFNAR (Clontech, PT3372-5W). The plasmid pISRE-Luc from Clontech (ref. 631913) contains 5 copies of this ISRE element, followed by the firefly luciferase ORF. A HEK293 cell line stably transfected with pISRE-Luc (HEK-ISREluc) was established to profile of the conditioned PBMC cell culture media.
Briefly, PBMCs were prepared from buffy coats of at least two donors using a standard Ficoll centrifugation protocol. Isolated PBMCs were resuspended in RPMI medium supplemented with 10% human AB serum and 2×10^5 cells/well were dispensed into 384-well plates containing compounds (70 μL total volume). After overnight incubation, 10 μL of supernatant was transferred to 384-well plates containing 5×10^3 HEK-ISREluc cells/well in 30 μL (plated the day before). Following 24 hours of incubation, activation of the ISRE elements was measured by assaying luciferase activity using 40 μL/well Steady Lite Plus substrate (Perkin Elmer) and measured with ViewLux ultraHTS microplate imager (Perkin Elmer). The stimulating activity of each compound on the HEK-ISREluc cells was reported as LEC value, defined as the compound concentration applied to the PBMCs resulting in a luciferase activity at least two fold above the standard deviation of the assay. The LEC in turn indicates the degree of ISRE activation on transfer of a defined amount of PBMC culture medium. Recombinant interferon α-2a (Roferon-A) was used as a standard control compound.

SMILES | TLR7-wt (LEC) (human TLR7) | HEK-ISRE luc (LEC) [1]
CCCCNc1nc(N)nc2ccc(F)cc12 [Compound 38] | 0.29 | 0.11
CCCCNc1nc(N)nc2cc(OC)ccc12 [Compound 39] | 0.94 | 0.15
CCCCNc1nc(N)nc2ccc(OC)cc12 [Compound 40] | 5.64 | 2.44
CCCCNc1nc(N)nc2cccc(Cl)c12 [Compound 41] | 0.99 | 0.17
CCCCNc1nc(N)nc2cc(F)c(F)cc12 [Compound 42] | 1.81 | 0.26
CCC[C@@H](CO)Nc1nc(N)nc2c(C)cccc12 [Compound 43] | 4.54 | 0.59
CCC[C@@H](CO)Nc1nc(N)nc2cc(C)ccc12 [Compound 44] | 0.43 | 0.09
CCC[C@@H](CO)Nc1nc(N)nc2ccc(C)cc12 [Compound 45] | 0.41 | 0.04
CCC[C@@H](CO)Nc1nc(N)nc2cccc(C)c12 [Compound 46] | 0.77 | 0.07
CCC[C@@H](CO)Nc1nc(N)nc2c(F)cccc12 [Compound 47] | 0.67 | 0.05
CCC[C@@H](CO)Nc1nc(N)nc2cc(F)ccc12 [Compound 48] | 0.54 | 0.02
CCC[C@@H](CO)Nc1nc(N)nc2ccc(F)cc12 [Compound 49] | 2.09 | 0.13
CCC[C@@H](CO)Nc1nc(N)nc2cccc(F)c12 [Compound 50] | 0.32 | 0.01
CCCC[C@@H](CO)Nc1nc(N)nc2ccc(C)cc12 [Compound 51] | 0.60 | 0.09

The next lines start with results.

TLR7-wt (LEC) (human TLR7) | SMILES | HEK-ISRE luc (LEC) [1]
0.41 | CCCC[C@@H](CO)Nc1nc(N)nc2cccc(C)c12 [Compound 52] | 0.03
0.06 | CCC[C@@H](CCO)Nc1nc(N)nc2cc(C)ccc12 [Compound 53] | 0.02
0.54 | CCC[C@@H](CCO)Nc1nc(N)nc2ccc(C)cc12 [Compound 54] | 0.18
0.39 | CCC[C@@H](CO)Nc1nc(N)nc2cc(OC)ccc12 [Compound 56] | 0.09
10.77 | CCC[C@@H](CO)Nc1nc(N)nc2ccc(OC)cc12 [Compound 57] | 2.08
0.18 | CCC[C@@H](CO)Nc1nc(N)nc2cccc(OC)c12 [Compound 58] | 0.04
0.29 | CCCC[C@@H](CO)Nc1nc(N)nc2c(F)cccc12 [Compound 59] | 0.05
0.23 | CCCC[C@@H](CO)Nc1nc(N)nc2cc(F)ccc12 [Compound 60] | 0.02
0.57 | CCCC[C@@H](CO)Nc1nc(N)nc2ccc(F)cc12 [Compound 61] | 0.12
0.75 | CCCC[C@@H](CO)Nc1nc(N)nc2cccc(F)c12 [Compound 62] | 0.03

Reference: patent publication US8916575B2, “Quinazoline derivatives for the treatment of viral infections and further diseases” (Janssen R&D Ireland, priority 2011, dated 2014)
